Experimental data: US20050118658A1, “Use of ERRalpha phosphorylation status as a breast cancer biomarker” (priority 2003, published 2005)

Experiments:
[1] = tested on: ER-stimulated ERE-regulated transcription in MCF-7 cells; test: Transient transfection dual-luciferase assay of ERE-regulated transcription in MCF-7 cells; assay type: cell-based, human; details: 100 pM E2, 48 h, estrogen-free medium, ER-positive MCF-7 cells
Protocol: (A) MCF-7 and (B) BT-474 cells were co-transfected in parallel with the ERE(5×)-regulated and TATA dual-luciferase reporter gene sets along with ERRα1, ERRα1L413A/L418A, GRIP1 (glucocorticoid receptor interacting protein 1, SRC2) or empty parental expression plasmids as indicated. Transfected cells were incubated for 48 h in estrogen-free medium supplemented with ethanol, the solvent for the ligands, 100 pM E2, or 100 pM E2 plus 100 nM fulvestrant (ICI 182,780, faslodex) prior to being harvested for dual-luciferase assays. The results shown here are means±standard deviations from data obtained in one representative experiment performed in triplicate.
Plasmids pERE(5x)-ffLuc and pTATA-ffLuc, encoding firefly luciferase, and plasmid pTATA-srLuc, encoding renilla luciferase, were used as matched dual-luciferase reporter sets to assay ERE-regulated versus basal transcription along with an internal control. They were constructed by insertion via HindIII linkers of the nts −31 to +31 region of the herpes simplex virus thymidine kinase (HSV-TK) promoter into pGL3-Basic and phRG-B (Promega, Madison, Wis.), respectively. Plasmid pERE(5x)-ffLuc, containing five tandem copies of the consensus palindromic ERE, was then constructed by insertion into pTATA-fELuc of the oligodeoxynucleotides 5′-tcgag[…]gag[…]ctc[…] GACCTCTgcg[…]gcg[…]a-3′ (SEQ ID NO:1) and 5′-gatct[…]cgc[…]cgc[…] […]

[2] = tested on: phosphorylated Akt (p-Akt); test: Immunoblot analysis of phosphorylated versus total Akt in BT-474 cells; assay type: cell-based, human; details: 48 h, 20 μg/ml trastuzumab, 1 μM gefitinib, 20 μM U0126 or 20 μM LY294002
Protocol: (§1) BT-474 cells were co-transfected in parallel with the ERE(5x)-regulated and TATA dual-luciferase reporter gene sets along with the indicated expression plasmids. […] In panel (B), the cells were incubated for 48 h in estrogen-free medium supplemented with dimethyl sulfoxide as the drug vehicle control, 20 μM U0126 (MEK inhibitor), or 20 μM LY294002 (PI3K inhibitor) as indicated. After incubation for 48 h, the cells were harvested for dual-luciferase assays. Data were analyzed as described in the legend to FIG. 2. (C) Immunoblot analysis of protein extracts (20 μg per sample) prepared from BT-474 cells treated as in panels A and B above for luciferase activity. The membrane was probed with antibodies that react specifically with ERRα. Reactive proteins were visualized by enhanced chemiluminescence and autoradiography. (D) Immunoblot analysis as in panel C above, only the membrane was probed with antibodies that react specifically with phosphorylated Akt (p-Akt), total Akt, phosphorylated MAPK (p-MAPK) or total MAPK.
(§2) Proteins were extracted in Cell Lysis Buffer (Cell Signaling Technology, Beverly, Mass.) supplemented with Protease Inhibitor Cocktail Set III and Phosphatase Inhibitor Cocktail Set II (Calbiochem). Protein amounts were quantified with Coomassie Protein Assay Reagent (Pierce Biotechnology) with BSA as the standard. […] In FIG. 5D, the membrane was probed sequentially with p44/42 MAPK polyclonal antibody, phospho-specific p44/42 MAPK (Thr202/Tyr204) monoclonal antibody E10, Akt polyclonal antibody, and phospho-specific Akt (Ser473) polyclonal antibody (Cell Signaling Technology). Reacting material was detected using horseradish peroxidase-conjugated secondary antibodies (Jackson ImmunoResearch Laboratories, West Grove, Pa.) together with enhanced chemiluminescence (Amersham Pharmacia) and autoradiography.

[3] = tested on: ERRα; test: Immunoblot analysis of ERRα expression in ERRα-transfected BT-474 cells; assay type: cell-based, human; details: BT-474 cells transfected with ERRα, 48 h; 20 μg/ml trastuzumab, 1 μM gefitinib, 20 μM U0126 or 20 μM LY294002
Protocol: as §1, §2

[4] = tested on: phosphorylated MAPK (p-MAPK); test: Immunoblot analysis of phosphorylated versus total MAPK in BT-474 cells; assay type: cell-based, human; details: 48 h, 20 μg/ml trastuzumab, 1 μM gefitinib, 20 μM U0126 or 20 μM LY294002
Protocol: as §1, §2

[5] = tested on: ERRα1-mediated constitutive activation of ERE-regulated transcription in BT-474 cells; test: Transient transfection dual-luciferase assay of ERRα1-mediated ERE-regulated transcription in BT-474 cells; assay type: cell-based, human
Protocol: as §1

[6] = target: T1, GST-ERRα1 1-376 (truncated GST-ERRα1 fusion protein) (UniProt P11474)
T1 sequence: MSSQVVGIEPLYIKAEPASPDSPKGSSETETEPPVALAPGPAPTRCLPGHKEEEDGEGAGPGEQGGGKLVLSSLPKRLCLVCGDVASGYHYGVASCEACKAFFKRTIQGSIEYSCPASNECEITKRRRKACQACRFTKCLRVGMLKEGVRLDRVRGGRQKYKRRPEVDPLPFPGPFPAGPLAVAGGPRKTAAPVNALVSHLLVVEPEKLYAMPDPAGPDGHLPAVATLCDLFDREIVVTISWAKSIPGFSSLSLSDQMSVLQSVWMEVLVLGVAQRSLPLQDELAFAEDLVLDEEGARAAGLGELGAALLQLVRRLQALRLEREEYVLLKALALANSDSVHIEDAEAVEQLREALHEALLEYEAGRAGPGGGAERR

[7] = target: T2, GST-ERRα1 1-173 (truncated GST-ERRα1 fusion protein) (UniProt P11474)
T2 sequence: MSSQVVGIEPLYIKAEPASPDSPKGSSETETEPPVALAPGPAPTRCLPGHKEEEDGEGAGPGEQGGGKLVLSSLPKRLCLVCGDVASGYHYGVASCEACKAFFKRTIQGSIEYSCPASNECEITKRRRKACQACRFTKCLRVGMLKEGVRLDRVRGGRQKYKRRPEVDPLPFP

[8] = target: T3, GST-ERRα1 1-423 (full-length GST-ERRα1 fusion protein) (UniProt P11474)
T3 sequence: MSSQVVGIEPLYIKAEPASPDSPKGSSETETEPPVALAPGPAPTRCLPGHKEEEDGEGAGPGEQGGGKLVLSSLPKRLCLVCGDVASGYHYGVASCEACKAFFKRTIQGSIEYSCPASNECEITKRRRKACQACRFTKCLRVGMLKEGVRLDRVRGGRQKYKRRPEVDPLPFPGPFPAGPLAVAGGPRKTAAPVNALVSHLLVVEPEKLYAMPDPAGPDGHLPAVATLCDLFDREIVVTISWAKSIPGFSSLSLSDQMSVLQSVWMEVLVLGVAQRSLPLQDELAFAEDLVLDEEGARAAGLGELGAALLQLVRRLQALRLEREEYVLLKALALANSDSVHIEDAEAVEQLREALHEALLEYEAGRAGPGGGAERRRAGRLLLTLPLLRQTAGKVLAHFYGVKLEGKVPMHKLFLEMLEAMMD

[9] = tested on: GST-β-globin 1-123 fusion protein [GST: P08515]
Chain of GST-β-globin 1-123 fusion protein [GST: P08515] (P08515 whole entry, looked up, the tested form may be a part): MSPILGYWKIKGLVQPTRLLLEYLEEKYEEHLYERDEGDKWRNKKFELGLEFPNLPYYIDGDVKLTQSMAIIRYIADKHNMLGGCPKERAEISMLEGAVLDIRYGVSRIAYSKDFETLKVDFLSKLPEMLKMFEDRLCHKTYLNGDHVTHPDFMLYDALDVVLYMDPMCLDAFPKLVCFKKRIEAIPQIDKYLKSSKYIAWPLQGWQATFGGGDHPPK

[10] = tested on: PHAS-1 (phosphorylated heat and acid-stable protein regulated by insulin)
[11] = target: Human ERRα1 containing a C-terminal 6×His tag, expressed and purified from E. coli, P11474

With `C[C@]12CC[C@@H]3c4ccc(O)cc4CC[C@H]3[C@@H]1CC[C@@H]2O` [E2, 17β-estradiol] the “induction of ERE-regulated transcription” value [1] was 19 fold.

In the case of `O=c1cc(N2CCOCC2)oc2c(-c3ccccc3)cccc12` [LY294002, 2-(4-morpholinyl)-8-phenyl-4H-1-benzopyran-4-one], the “phosphorylation of Akt / PI3K/Akt pathway activation (immunoblot)” value [2] is reported as “inhibition of phosphorylation of Akt”, the “ERRα expression (immunoblot)” value [3] is reported as “still expressed” and the “phosphorylation of MAPK / MEK/MAPK pathway activation (immunoblot)” value [4] is reported as “without affecting MAPK status”.

For `N#CC(=C(/N)Sc1ccccc1N)/C(C#N)=C(\N)Sc1ccccc1N` [U0126], the “phosphorylation of Akt / PI3K/Akt pathway activation (immunoblot)” value [2] was “without affecting Akt status”, the “reduction in ERRα1's activator activity” value [5] was “approximately 50%” and the “ERRα expression (immunoblot)” value [3] was “still expressed”. The “phosphorylation of MAPK / MEK/MAPK pathway activation (immunoblot)” value [4] was “inhibition of phosphorylation of MAPK”.

For “rat p42 MAPK2 (ERK2; Calbiochem) phosphorylated in vitro by a constitutively active MEK1 mutant”, the “in vitro phosphorylation with [γ32P]-ATP, 12% SDS-PAGE and PhosphorImager” value [6] was “MAPK phosphorylated each of the GST-ERRα1 fusion proteins, with more label being incorporated into GST-ERRα11-423 than into GST-ERRα11-376 and GST-ERRα11-173”, the “in vitro phosphorylation with [γ32P]-ATP, 12% SDS-PAGE and PhosphorImager” value [7] was “MAPK phosphorylated each of the GST-ERRα1 fusion proteins, with more label being incorporated into GST-ERRα11-423 than into GST-ERRα11-376 and GST-ERRα11-173” and the “in vitro phosphorylation with [γ32P]-ATP, 12% SDS-PAGE and PhosphorImager” value [8] was “MAPK phosphorylated each of the GST-ERRα1 fusion proteins, with more label being incorporated into GST-ERRα11-423 than into GST-ERRα11-376 and GST-ERRα11-173”. For the same molecule, the “in vitro phosphorylation with [γ32P]-ATP, 12% SDS-PAGE and PhosphorImager” value [9] was “activated MAPK efficiently phosphorylated PHAS-1, but not GST-β-globin1-123” and the “in vitro phosphorylation with [γ32P]-ATP, 12% SDS-PAGE and PhosphorImager” value [10] was “activated MAPK efficiently phosphorylated PHAS-1, but not GST-β-globin1-123”.

B1: Human Akt1 containing an N-terminal 6×His tag, lacking amino acids 1-117 (Pleckstrin Homology domain), serine 473 mutated to aspartic acid (protein)
chain: HHHHHHMDFRSGSPSDNSGAEEMEVSLAKPKHRVTMNEFEYLKLLGKGTFGKVILVKEKATGRYYAMKILKKEVIVAKDEVAHTLTENRVLQNSRHPFLTALKYSFQTHDRLCFVMEYANGGELFFHLSRERVFSEDRARFYGAEIVSALDYLHSEKNVVYRDLKLENLMLDKDGHIKITDFGLCKEGIKDGATMKTFCGTPEYLAPEVLEDNDYGRAVDWWGLGVVMYEMMCGRLPFYNQDHEKLFELILMEEIRFPRTLGPEAKSLLSGLLKKDPKQRLGGGSEDAKEIMQHRFFAGIVWQHVYEKKLSPPFKPQVTSETDTRYFDEEFTAQMITITPPDQDDSMECVDSERRPHFPQFDYSASGTA
With B1 the “in vitro phosphorylation with [γ-32P]-ATP, SDS-(4-12%) PAGE and autoradiography” value [11] was “Each of the kinases tested was capable of phosphorylating ERRα in vitro”.

B2: Human MAPK1 containing an N-terminal GST tag, activated with MEK1 (protein)
chain: MAAAAAQGGGGGEPRRTEGVGPGVPGEVEMVKGQPFDVGPRYTQLQYIGEGAYGMVSSAYDHVRKTRVAIKKISPFEHQTYCQRTLREIQILLRFRHENVIGIRDILRASTLEAMRDVYIVQDLMETDLYKLLKSQQLSNDHICYFLYQILRGLKYIHSANVLHRDLKPSNLLINTTCDLKICDFGLARIADPEHDHTGFLTEYVATRWYRAPEIMLNSKGYTKSIDIWSVGCILAEMLSNRPIFPGKHYLDQLNHILGILGSPSQEDLNCIINMKARNYLQSLPSKTKVAWAKLFPKSDSKALDLLDRMLTFNPNKRITVEEALAHPYLEQYYDPTDEPVAEEPFTFAMELDDLPKERLKELIFQETARFQPGVLEAP
With B2 the “in vitro phosphorylation with [γ-32P]-ATP, SDS-(4-12%) PAGE and autoradiography” value [11] was “Each of the kinases tested was capable of phosphorylating ERRα in vitro”.

B3: Human Akt2 containing an N-terminal 6×His tag, lacking amino acids 1-117 (Pleckstrin Homology domain), serine 474 mutated to aspartic acid (protein)
chain: HHHHHHDPMDYKCGSPSDSSTTEEMEVAVSKARAKVTMNDFDYLKLLGKGTFGKVILVREKATGRYYAMKILRKEVIIAKDEVAHTVTESRVLQNTRHPFLTALKYAFQTHDRLCFVMEYANGGELFFHLSRERVFTEERARFYGAEIVSALEYLHSRDVVYRDIKLENLMLDKDGHIKITDFGLCKEGISDGATMKTFCGTPEYLAPEVLEDNDYGRAVDWWGLGVVMYEMMCGRLPFYNQDHERLFELILMEEIRFPRTLSPEAKSLLAGLLKKDPKQRLGGGPSDAKEVMEHRFFLSINWQDVVQKKLLPPFKPQVTSEVDTRYFDDEFTAQSITITPPDRYDSLGLLELDQRTHFPQFDYSASIRE
In the case of B3, the “in vitro phosphorylation with [γ-32P]-ATP, SDS-(4-12%) PAGE and autoradiography” value [11] is reported as “Each of the kinases tested was capable of phosphorylating ERRα in vitro”.
